Data on 13 compounds can be found in patent publication US11414424B2, “Cardiac sarcomere inhibitors” (Cytokinetics, Inc., priority 2018, dated 2022).

Assay [1] has as its system bovine cardiac myofibrils. The assay can be described thus: Myofibril assay: PK/LDH-coupled steady-state ATPase activity of skinned bovine cardiac myofibrils. Type of assay: biochemical. The conditions noted are these: Ca2+ activating to 75% of maximal rate. The procedure, abridged:
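Steady-state ATPase of detergent-skinned bovine left-ventricular myofibrils (1 mg/mL), PK/LDH-coupled NADH read at 340 nm, in PIPES/MgCl2 buffer pH 6.8 with 50 μM ATP, 0.6 mM EGTA and CaCl2 set for 50% or 75% activation. Inhibition of activity measured.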

The subject of assay [2] is male Sprague Dawley rats. The assay can be described thus: Echocardiography assessment of acute pharmacodynamic effect on rat cardiac contractility, continuous IV infusion. Type of assay: in vivo. As to conditions: estimated plasma concentration at which fractional shortening is 50% of the pre-dose baseline contractility, read-out: IC50 (mean ± SD). The procedure:
(§1) Assessment of in vivo cardiac function by echocardiography was performed in male Sprague Dawley rats under isoflurane (1-3%) anesthesia. 2-D M-mode images of the left ventricle were acquired in the parasternal long-axis view before, during, and after administration of compounds by continuous IV infusion or oral gavage. In vivo fractional shortening was determined by M-mode image analysis with the following calculation: ((End diastolic diameter−end systolic diameter)/end diastolic diameter×100). For continuous IV infusion experiments, three pre-dose baseline M-mode images were taken at 1 minute intervals prior to infusion of compound. Compounds were formulated in 50% Propylene Glycol (PG): 16% Captisol: 10% dimethylacetamide (DMA) and delivered via a jugular vein catheter at the rate of 1 mL/kg/h. During infusion, M-mode images were taken at 5 minute intervals. The infusion was stopped when fractional shortening reached up to a 60% reduction from baseline. Blood samples were taken to determine the plasma concentration of the compounds. Data were reported as an estimated IC50 value, which is the concentration at which fractional shortening is 50% of the pre-dose baseline contractility.

Assay [3] has as its system male Sprague Dawley rats. The assay can be described thus: Echocardiography assessment of acute pharmacodynamic effect on rat cardiac contractility, oral dosing. Type of assay: in vivo. The procedure:
as §1
For oral dosing studies, three pre-dose baseline M-Mode images were taken at 1 minute intervals prior to compound administration. Compounds were formulated in a 0.5% hydroxypropyl methylcellulose 2910 (HPMC 2910): 0.1% Tween 80 suspension and delivered as a single dose (5 mL/kg) by oral gavage. At one and four hours post-dose, rats were lightly anesthetized for M-mode echocardiography measurement. The compound effect on cardiac fractional shortening are presented as a percent reduction of baseline fractional shortening (=100%) in Table D.
Concurrent with echocardiography measurements, blood samples are taken to determine the corresponding compound plasma concentration, which may be represented as IC50 and IC10 values, which is the concentration at which fractional shortening is 50% and 10% of the pre-dose baseline contractility, respectively.

Assay [4] relates to adult cardiac ventricular rat myocytes. Kind of assay: Adult ventricular myocyte contractility (fractional shortening). Type of assay: cell-based. As to conditions: 5 min perfusion. The method, then: Adult male Sprague-Dawley rats were anesthetized and the hearts were quickly excised, rinsed and the ascending aorta was cannulated. Continuous retrograde perfusion was initiated on the hearts at a perfusion pressure of 60 cm H2O. Hearts were first perfused with a nominally Ca^2+-free modified Krebs solution of the following composition: 113 mM NaCl, 4.7 mM KCl, 0.6 mM KH2PO4, 0.6 mM Na2HPO4, 1.2 mM MgSO4, 12 mM NaHCO3, 10 mM KHCO3, 30 mM taurine, 5.5 mM glucose and 10 mM Hepes (all Sigma). This medium was not recirculated and was continually aerated with a 95% O2/5% CO2 mixture. After approximately 3 minutes, the heart was perfused with a modified Krebs buffer supplemented with collagenase (Worthington) and 12.5 μM final calcium concentration. The heart was removed from the cannulae after the heart appeared blanched and soft in appearance. The atria and vessels were removed and the ventricles were gently dissected into smaller pieces with forceps. The tissue was homogenized by repeated pipette trituration and the collagenase reaction was stopped by 10% bovine calf serum (BCS), sedimentation and resuspension in perfusion buffer containing 5% BCS and 12.5 uM CaCl2. Myocytes were made calcium tolerant by stepwise addition of a CaCl2 solution to a final concentration of 1.2 mM. Cells were then washed and resuspended in Tyrode's buffer (137 mM NaCl, 3.7 mM KCl, 0.5 mM MgCl, 11 mM glucose, 4 mM Hepes, and 1.2 mM CaCl2, pH 7.4). Cells were kept for 60 min at 37° C. prior to initiating experiments and used within 5 hrs of isolation. […] Additionally, only cells whose basal contractility was between 3 and 8% were used in subsequent experiments with compounds.
Aliquots of myocytes in Tyrode's buffer were placed in perfusion chambers (series 20 RC-27NE; Warner Instruments) complete with heating platforms. Myocytes were allowed to attach, the chambers were heated to 37° C., and the cells were perfused with 37° C. Tyrode's buffer. Myocytes were field stimulated at 1 Hz in with platinum electrodes (20% above threshold). Only cells that had clear striations and were quiescent prior to pacing were used for contractility experiments. To determine basal contractility, myocytes were imaged through a 40× objective. […] Once cell contraction was stable over time, test compounds (0.01-15 μM) were perfused into the chambers on the myocytes for 5 minutes. Contractility of the myocytes and contraction and relaxation velocities were then recorded using edge detection.
Five or more individual myocytes were tested per compound from two or more different myocyte preparations. For each cell, twenty or more contractility transients at basal (defined as 1 min prior to compound infusion) and after compound addition (defined as 5 min after starting compound perfusion), were averaged and compared. These average transients were analyzed using the IonWizard software (IonOptix) to determine changes in diastolic length and fractional shortening. Fractional shortening was calculated as: ((resting length−length at peak contraction) divided by the resting length). The percent change in fractional shortening from baseline was calculated as: ((post-dose fractional shortening/basal fractional shortening)*100). The percent reduction in fractional shortening from baseline was calculated as: (100−percent change in fractional shortening from baseline). Maximum contraction and relaxation velocities (um/sec) was also determined. Results from individual cells were averaged and the SEM was calculated.

For orientation: IC50 means the concentration that gives 50% inhibition.

Structures are written as SMILES.

With `CNC(=O)N1CC2(C1)C(=O)N(c1ccc(Cl)cc1)CC(=O)N2Cc1ccc(C(F)(F)F)cc1` [Compound 150, 8-(4-chlorophenyl)-N-methyl-6,9-dioxo-5-(4-(trifluoromethyl)benzyl)-2,5,8-triazaspiro[3.5]-nonane-2-carboxamide], the “CDMF75 IC15” value in assay [1] was 1100 nM. Also, in the assay on male Sprague Dawley rats [2], the IC50 was 5440 ± 120 nM.
Turning to `N#Cc1ccc(N2CC(=O)N(Cc3ccc(C(F)(F)F)cc3)C3(CC3)C2=O)c(F)c1` [Compound 278, 4-(5,8-dioxo-4-(4-(trifluoromethyl)benzyl)-4,7-diazaspiro[2.5]octan-7-yl)-3-fluorobenzonitrile], the “CDMF75 IC15” value in assay [1] is 500 nM. In the assay with male Sprague Dawley rats [3] (3 mg/kg oral), the “FS (% reduction from baseline) at 1 h (Mean ± SEM)” value amounted to 15.8 ± 2.0% and the “FS (% reduction from baseline) at 4 h (Mean ± SEM)” value worked out at 10.6 ± 5.6%. Further, in the assay on male Sprague Dawley rats [3] (6 mg/kg oral), the “FS (% reduction from baseline) at 1 h (Mean ± SEM)” value is recorded as 34.4 ± 3.3% and the “FS (% reduction from baseline) at 4 h (Mean ± SEM)” value is recorded as 12.2 ± 4.2%.
As to `N#Cc1ccc(N2CC(=O)N(Cc3ccc(C(F)(F)F)cc3)C3(CN(C=O)C3)C2=O)c(F)c1` [Compound 179, 3-fluoro-4-(2-formyl-6,9-dioxo-5-(4-(trifluoro-methyl)benzyl)-2,5,8-triazaspiro[3.5]nonan-8-yl)benzonitrile], in assay [1], the “CDMF75 IC15” value stood at 300 nM. The entries for the “FS (% reduction from baseline) at 1 h (Mean ± SEM)” value with male Sprague Dawley rats [3] (3 mg/kg oral) and in the assay on male Sprague Dawley rats [3] (6 mg/kg oral) were 33.8 ± 2.6% and 51.9 ± 4.0%, respectively. The “FS (% reduction from baseline) at 4 h (Mean ± SEM)” value in the assay on male Sprague Dawley rats [3] (3 mg/kg oral) came to 4.5 ± 4.2%; in the assay on male Sprague Dawley rats [3] (6 mg/kg oral), 15.0 ± 5.4%.
Turning to `O=C1C(C2COC2)N(Cc2ccc(C(F)(F)F)cc2)C(=O)CN1c1ncc(Cl)cc1F` (single isomer, unassigned) [Compound 861A, 1-(5-chloro-3-fluoropyridin-2-yl)-3-(oxetan-3-yl)-4-(4-(trifluoromethyl)benzyl)piperazine-2,5-dione], the “CDMF75 IC15” value in assay [1] is 1000 nM. Besides, in the assay with male Sprague Dawley rats [3] (10 mg/kg oral), the “FS (% reduction from baseline) at 1 h (Mean ± SEM)” value is on record as 13.4 ± 1.6% and the “FS (% reduction from baseline) at 4 h (Mean ± SEM)” value is 2.0 ± 3.1%. In the assay with male Sprague Dawley rats [3] (100 mg/kg oral), the “FS (% reduction from baseline) at 1 h (Mean ± SEM)” value turned out to be 50.0 ± 4.0% and the “FS (% reduction from baseline) at 4 h (Mean ± SEM)” value worked out at 48.8 ± 5.0%. Also, in assay [4] (5 μM), the “% FS (% reduction from baseline) ± SEM” value is 88.0 ± 3.31%.
Consider `CC(C)N1CC(=O)N(Cc2ccc(Cl)cc2)C(c2ccc(Cl)cc2)C1=O` (single isomer, unassigned) [Compound 288A, 3-(4-chlorophenyl)-4-[(4-chlorophenyl)methyl]-1-(propan-2-yl)piperazine-2,5-dione], for which the “CDMF75 IC15” value in assay [1] was 800 nM. For the same compound, in assay [4] (5 μM), the “% FS (% reduction from baseline) ± SEM” value stood at 64.4 ± 9.7%.
On to `CC(=O)N1CC2(C1)C(=O)N(c1ccc(C#N)cc1F)CC(=O)N2[C@@H](C)c1ccc(C(F)(F)F)cc1` [Compound 339, (S)-4-(2-acetyl-6,9-dioxo-5-(1-(4-(trifluoromethyl)phenyl)ethyl)-2,5,8-triazaspiro[3.5]nonan-8-yl)-3-fluorobenzonitrile], for which the “CDMF75 IC15” value in assay [1] came to 500 nM. In the assay with male Sprague Dawley rats [3] (2.5 mg/kg oral), the “FS (% reduction from baseline) at 1 h (Mean ± SEM)” value worked out at 21.8 ± 2.8% and the “FS (% reduction from baseline) at 4 h (Mean ± SEM)” value is given as 5.8 ± 4.4%. In the assay with male Sprague Dawley rats [3] (5 mg/kg oral), the “FS (% reduction from baseline) at 1 h (Mean ± SEM)” value is 66.2 ± 2.9% and the “FS (% reduction from baseline) at 4 h (Mean ± SEM)” value turned out to be 19.9 ± 2.0%.
With `CC(=O)N1CC[C@]2(C1)C(=O)N(c1ccc(C#N)cc1F)CC(=O)N2Cc1ccc(Cl)cc1` [Compound 206, (S)-4-(2-acetyl-6-(4-chlorobenzyl)-7,10-dioxo-2,6,9-triazaspiro[4.5]decan-9-yl)-3-fluorobenzonitrile], in assay [1], the “CDMF75 IC15” value was found to be 500 nM. For the same compound, the “% FS (% reduction from baseline) ± SEM” value in assay [4] (10 μM) worked out at 95.1 ± 1.6%.
The like results for `CC(C)N1CC(=O)N(Cc2ccc(Cl)cc2)C2(CCN(c3ccccn3)C2)C1=O` (single isomer, unassigned) [Compound 373A, 6-[(4-chlorophenyl)methyl]-9-(propan-2-yl)-2-(pyridin-2-yl)-2,6,9-triazaspiro[4.5]decane-7,10-dione] were, in that order, 400 nM and 76.6 ± 8.8%.
On to `CC(C)N1CC(=O)N(Cc2ccc(Cl)cc2)C2(CCN(C(=O)Nc3ccccc3)C2)C1=O` (stereo not shown) [Compound 123, 6-(4-chlorobenzyl)-9-isopropyl-7,10-dioxo-N-phenyl-2,6,9-triazaspiro-[4.5]decane-2-carboxamide], for which, in assay [1], the “CDMF75 IC15” value came to 11200 nM.
Same read-out and setting: the same measure for `CC(C)N1CC(=O)N(Cc2ccc(C(F)(F)F)cc2)C2(CCN(C(=O)Nc3ccc(F)cc3)C2)C1=O` (stereo not shown) [Compound 115, N-(4-fluorophenyl)-9-isopropyl-7,10-dioxo-6-(4-(trifluoromethyl)benzyl)-2,6,9-triazaspiro[4.5]decane-2-carboxamide]: 10200 nM; for `COc1cnc(N2CC(=O)N(Cc3ccc(C(F)(F)F)cc3)C(C3COC3)C2=O)c(F)c1` (single isomer, unassigned) [Compound 703B, 1-(3-fluoro-5-methoxypyridin-2-yl)-3-(oxetan-3-yl)-4-(4-(trifluoromethyl)benzyl)piperazine-2,5-dione]: 37200 nM; for `COC(=O)c1ccc(N2CC3(C2)C(=O)N(c2ccc(C#N)cc2F)CC(=O)N3Cc2ccc(C(F)(F)F)cc2)cc1` [Compound 534, methyl 4-(8-(4-cyano-2-fluorophenyl)-6,9-dioxo-5-(4-(trifluoromethyl)benzyl)-2,5,8-triazaspiro[3.5]nonan-2-yl)benzoate]: 200 nM.
The same measure, in the same setting: the same measure for `CNC(=O)N1CCC2(C1)C(=O)N(C(C)C)CC(=O)N2Cc1ccc(Cl)cc1` (stereo not shown) [Compound 121, 6-(4-chlorobenzyl)-9-isopropyl-N-methyl-7,10-dioxo-2,6,9-triazaspiro[4.5]-decane-2-carboxamide]: 9900 nM.
